Test results: patent publication US7417156B2, “Orally active, antimalarial, anticancer, artemisinin-derived trioxane dimers” (Johns Hopkins University, priority 2002, dated 2008)

What was measured:
M14 = assay: NCI 60 cell line panel screen (SRB); assay type: cell-based, human
U251 = assay: NCI 60 cell line panel screen (SRB); assay type: cell-based, human
NCI-H322M = assay type: cell-based
MALME-3M = assay: NCI 60 cell line panel screen (SRB); assay type: cell-based, human
IGROVI = assay: NCI 60 cell line panel screen (SRB); assay type: cell-based, human
SNB-75 = assay: NCI 60 cell line panel screen (SRB); assay type: cell-based, human
PC-3 = assay: NCI 60 cell line panel screen (SRB); assay type: cell-based, human
RPMI-8226 = assay: NCI 60 cell line panel screen (SRB); assay type: cell-based, human
NCI-H460 = assay: NCI 60 cell line panel screen (SRB); assay type: cell-based, human
HOP-92 = assay: NCI 60 cell line panel screen (SRB); assay type: cell-based, human
T-47D = assay: NCI 60 cell line panel screen (SRB); assay type: cell-based, human; conditions: T-47D (Breast Cancer)
786-0 = assay: NCI 60 cell line panel screen (SRB); assay type: cell-based, human
KM12 = assay: NCI 60 cell line panel screen (SRB); assay type: cell-based, human
SK-MEL-28 = assay: NCI 60 cell line panel screen (SRB); assay type: cell-based, human
HCT-15 = assay: NCI 60 cell line panel screen (SRB); assay type: cell-based, human
60 cell line panel = assay type: cell-based
TK-10 = assay: NCI 60 cell line panel screen (SRB); assay type: cell-based, human
SNB-19 = assay: NCI 60 cell line panel screen (SRB); assay type: cell-based, human
NCI-H23 = assay: NCI 60 cell line panel screen (SRB); assay type: cell-based, human
HS 578T = assay: NCI 60 cell line panel screen (SRB); assay type: cell-based, human
OVCAR-3 = assay: NCI 60 cell line panel screen (SRB); assay type: cell-based, human
SK-MEL-2 = assay: NCI 60 cell line panel screen (SRB); assay type: cell-based, human
MDA-MB-435 = assay: NCI 60 cell line panel screen (SRB); assay type: cell-based, human
ACHN = assay: NCI 60 cell line panel screen (SRB); assay type: cell-based, human
UO-31 = assay: NCI 60 cell line panel screen (SRB); assay type: cell-based, human
OVCAR-5 = assay: NCI 60 cell line panel screen (SRB); assay type: cell-based, human
HCT-116 = assay: NCI 60 cell line panel screen (SRB); assay type: cell-based, human
COLO 205 = assay: NCI 60 cell line panel screen (SRB); assay type: cell-based, human
[1] = mean value over the 60 cell line panel

Structure (SMILES): CC1CCC2C(C)C(CC(CO)CC3OC4OC5(C)CCC6C(C)CCC(C3C)C46OO5)OC3OC4(C)CCC1C32OO4 (centres unmarked) [Compound 4, bis-trioxane primary alcohol]
- Log10LC50 (M14; M14 (Melanoma), LC50: PG=−50): −4.14 log10M
- Log10TGI50 (M14; M-14 (Melanoma), TGI: PG=0): −4.68 log10M
- Log10GI50 (M14; Melanoma, M14): −5.87
- Log10GI50 (U251; CNS Cancer, U251): −7.27
- Log10LC50 (U251; U251 (CNS Cancer), LC50: PG=−50): >−4.00 log10M
- Log10TGI50 (U251; U251 (CNS Cancer), TGI: PG=0): −4.47 log10M
- Log10LC50 (NCI-H322M; NCI-H322M (Non-Small Cell Lung Cancer), LC50: PG=−50): −4.29 log10M
- Log10TGI50 (NCI-H322M; NCI-H322M (Non-Small Cell Lung Cancer), TGI: PG=0): −4.63 log10M
- Log10GI50 (NCI-H322M; Non-Small Cell Lung Cancer, NCI-H322M): −4.97
- Log10LC50 (MALME-3M; MALME-3M (Melanoma), LC50: PG=−50): −4.28 log10M
- Log10TGI50 (MALME-3M; MALME-3M (Melanoma), TGI: PG=0): −4.74 log10M
- Log10GI50 (MALME-3M; Melanoma, MALME-3M): −7.31
- Log10LC50 (IGROVI; IGROVI (Ovarian Cancer), LC50: PG=−50): −4.32 log10M
- Log10TGI50 (IGROVI; IGROVI (Ovarian Cancer), TGI: PG=0): −4.68 log10M
- Log10GI50 (IGROVI; Ovarian Cancer, IGROVI): −5.36
- Log10GI50 (SNB-75; CNS Cancer, SNB-75): −4.99
- Log10LC50 (SNB-75; SNB-75 (CNS Cancer), LC50: PG=−50): −4.12 log10M
- Log10TGI50 (SNB-75; SNB-75 (CNS Cancer), TGI: PG=0): −4.55 log10M
- Log10LC50 (PC-3; PC-3 (Prostate Cancer), LC50: PG=−50): −4.34 log10M
- Log10TGI50 (PC-3; PC-3 (Prostate Cancer), TGI: PG=0): −4.89 log10M
- Log10GI50 (PC-3; Prostate Cancer, PC-3): <−8.00
- Log10GI50 (RPMI-8226; Leukemia, RPMI-8226): <−8.00
- Log10LC50 (RPMI-8226; RPMI-8226 (Leukemia), LC50: PG=−50): >−4.00 log10M
- Log10TGI50 (RPMI-8226; RPMI-8226 (Leukemia), TGI: PG=0): −6.91 log10M
- Log10LC50 (NCI-H460; NCI-H460 (Non-Small Cell Lung Cancer), LC50: PG=−50): −4.19 log10M
- Log10TGI50 (NCI-H460; NCI-H460 (Non-Small Cell Lung Cancer), TGI: PG=0): −4.71 log10M
- Log10GI50 (NCI-H460; Non-Small Cell Lung Cancer, NCI-H460): −7.35
- Log10LC50 (HOP-92; HOP-92 (Non-Small Cell Lung Cancer), LC50: PG=−50): −4.22 log10M
- Log10TGI50 (HOP-92; HOP-92 (Non-Small Cell Lung Cancer), TGI: PG=0): −4.65 log10M
- Log10GI50 (HOP-92; Non-Small Cell Lung Cancer, HOP-92): −6.37
- Log10LC50 (T-47D; LC50: PG=−50): −4.17 log10M
- Log10TGI50 (T-47D; TGI: PG=0): −4.73 log10M
- Log10LC50 (786-0; 786-0 (Renal Cancer), LC50: PG=−50): −4.31 log10M
- Log10TGI50 (786-0; 786-0 (Renal Cancer), TGI: PG=0): −4.83 log10M
- Log10GI50 (786-0; Renal Cancer, 786-0): −7.48
- Log10GI50 (KM12; Colon Cancer, KM12): <−8.00
- Log10LC50 (KM12; KM12 (Colon Cancer), LC50: PG=−50): −4.29 log10M
- Log10TGI50 (KM12; KM12 (Colon Cancer), TGI: PG=0): −4.79 log10M
- Log10GI50 (SK-MEL-28; Melanoma, SK-MEL-28): −4.95
- Log10LC50 (SK-MEL-28; SK-MEL-28 (Melanoma), LC50: PG=−50): −4.12 log10M
- Log10TGI50 (SK-MEL-28; SK-MEL-28 (Melanoma), TGI: PG=0): −4.54 log10M
- Log10GI50 (HCT-15; Colon Cancer, HCT-15): <−8.00
- Log10LC50 (HCT-15; HCT-15 (Colon Cancer), LC50: PG=−50): −4.06 log10M
- Log10TGI50 (HCT-15; HCT-15 (Colon Cancer), TGI: PG=0): −4.78 log10M
- Log10GI50 Delta (60 cell line panel): 1.13
- Log10GI50 Range (60 cell line panel): 3.20
- Log10LC50 Delta (60 cell line panel; 60 cell line panel): 0.88
- Log10LC50 Range (60 cell line panel; 60 cell line panel): 1.14
- Log10TGI50 Delta (60 cell line panel; 60 cell line panel): 2.31
- Log10TGI50 Range (60 cell line panel; 60 cell line panel): 3.18
- growth inhibition and cytotoxicity in words (60 cell line panel; human cancer cell lines in general): strongly inhibitory but not cytotoxic
- growth inhibition in words (60 cell line panel; leukemia cell line RPM 1-8226, melanoma cell line SK-MEL-5, renal cancer cell line ACHN): selectively and strongly inhibitory
- Log10GI50 MG MID (60 cell line panel; mean over panel): −6.87
- Log10LC50 MG MID (60 cell line panel; [1]): −4.26 log10M
- Log10TGI50 MG MID (60 cell line panel; [1]): −4.87 log10M
- Log10GI50 (TK-10; Renal Cancer, TK-10): −6.60
- Log10LC50 (TK-10; TK-10 (Renal Cancer), LC50: PG=−50): −4.38 log10M
- Log10TGI50 (TK-10; TK-10 (Renal Cancer), TGI: PG=0): −4.81 log10M
- Log10GI50 (SNB-19; CNS Cancer, SNB-19): −4.88
- Log10LC50 (SNB-19; SNB-19 (CNS Cancer), LC50: PG=−50): −4.13 log10M
- Log10TGI50 (SNB-19; SNB-19 (CNS Cancer), TGI: PG=0): −4.50 log10M
- Log10LC50 (NCI-H23; NCI-H23 (Non-Small Cell Lung Cancer), LC50: PG=−50): −4.49 log10M
- Log10GI50 (NCI-H23; Non-Small Cell Lung Cancer, NCI-H23): −7.84
- Log10GI50 (HS 578T; Breast Cancer, HS 578T): −4.82
- Log10LC50 (HS 578T; HS 578T (Breast Cancer), LC50: PG=−50): >−4.00 log10M
- Log10TGI50 (HS 578T; HS 578T (Breast Cancer), TGI: PG=0): >−4.00 log10M
- Log10LC50 (OVCAR-3; OVCAR-3 (Ovarian Cancer), LC50: PG=−50): −4.42 log10M
- Log10TGI50 (OVCAR-3; OVCAR-3 (Ovarian Cancer), TGI: PG=0): −4.92 log10M
- Log10GI50 (OVCAR-3; Ovarian Cancer, OVCAR-3): −7.68
- Log10GI50 (SK-MEL-2; Melanoma, SK-MEL-2): −7.33
- Log10LC50 (SK-MEL-2; SK-MEL2 (Melanoma), LC50: PG=−50): −4.46 log10M
- Log10TGI50 (SK-MEL-2; SK-MEL-2 (Melanoma), TGI: PG=0): −4.92 log10M
- Log10GI50 (MDA-MB-435; Breast Cancer, MDA-MB-435): −7.50
- Log10LC50 (MDA-MB-435; MDA-MB-435 (Breast Cancer), LC50: PG=−50): −4.30 log10M
- Log10TGI50 (MDA-MB-435; MDA-MB-435 (Breast Cancer), TGI: PG=0): −4.78 log10M
- Log10LC50 (ACHN; ACHN (Renal Cancer), LC50: PG=−50): −4.30 log10M
- Log10TGI50 (ACHN; ACHN (Renal Cancer), TGI: PG=0): −4.76 log10M
- Log10GI50 (ACHN; Renal Cancer, ACHN): −7.12
- Log10GI50 (UO-31; Renal Cancer, UO-31): −7.46
- Log10LC50 (UO-31; UO-31 (Renal Cancer), LC50: PG=−50): −5.14 log10M
- Log10TGI50 (UO-31; UO-31 (Renal Cancer), TGI: PG=0): −5.77 log10M
- Log10LC50 (OVCAR-5; OVCAR-5 (Ovarian Cancer), LC50: PG=−50): −4.54 log10M
- Log10TGI50 (OVCAR-5; OVCAR-5 (Ovarian Cancer), TGI: PG=0): −6.42 log10M
- Log10GI50 (OVCAR-5; Ovarian Cancer, OVCAR-5): −7.79
- Log10GI50 (HCT-116; Colon Cancer, HCT-116): <−8.00
- Log10LC50 (HCT-116; HCT-116 (Colon Cancer), LC50: PG=−50): −4.57 log10M
- Log10LC50 (COLO 205; COLO 205 (Colon Cancer), LC50: PG=−50): −4.50 log10M
- Log10TGI50 (COLO 205; COLO 205 (Colon Cancer), TGI: PG=0): −6.43 log10M
- Log10GI50 (COLO 205; Colon Cancer, COLO 205): <−8.00
